The record followed here is US8093229B2, “Alkynyl pyrrolo[2,3-d]pyrimidines and related analogs as HSP90-inhibitors” (Conforma Therapeutics Corporation, priority 2005, dated 2012).

What all share (assay type): cell-based
One test relates to HER2/Neu protein. In words: Her2 degradation assay. The conditions noted are these: MCF7 cells, 16 h. From the text: [drawing 219] wherein R^3′ is not alkynyl, which were disclosed in U.S. patent application Ser. No. 10/945,851 and PCT Application US04/31248. The pyrrolopyrimidine compounds specified in the EXAMPLE sections of the above patent applications carry either no substituent or a substituted alkyl group. […] A simple alkyl or a substituted alkyl at C-5 (ie R^3=alkyl or substituted alkyl) can only bring two-fold additional activity. Conversely, if C-5 is alkyne substituted, the potency increases approximately 10-20 fold. (See, Series A: compounds A, B, C and D below).
Many cancers are associated with the over expression Her2 protein. It has been shown that compounds able to diminish Her2 levels show good promise as anti-cancer agents.
MCF7 breast carcinoma cells (ATCC) were grown in Dulbecco's modified Eagle's medium (DMEM) containing 10% fetal bovine serum (FBS) and 10 mM HEPES, and plated in 24 well plates (50% confluent). […] Samples were analyzed using a FACSCalibur™ flow cytometer (Becton Dickinson, San Jose, Calif.) equipped with Argon-ion laser that emits 15 mW of 488 nm light for excitation of the PE fluorochrome. […] A fluorescence histogram was generated and the mean fluorescence intensity (MFI) of each sample was determined using Cellquest software. […] Percent degradation of Her2 was calculated as follows: % Her2 degraded=[(MFI untreated cells−MFI treated cells)/MFI untreated cell]×100. […]

The subject of test [1] is MCF7 breast carcinoma cells. In words: MTS assay / secondary assay of killing tumor cells, MCF7. The conditions noted are these: for pIC50: Homo sapiens, MCF7. On the procedure: (§1) The difference in potency index between alkynes and non-alkynes measured by a secondary assay is also striking. The secondary assay measures the efficiency of killing tumor cells. […] EC50 is defined as the amount of compound added to effect a 50% reduction in viable cell number. Selected compounds were tested on cells of MCF7 and BT474 breast tumor cell lines. […] TABLE 2 summarized the result of the assay.
(§2) 3-(4,5-dimethylthiazol-2-yl)-5-(3-carboxymethoxyphenyl)-2-(4-sulfophenyl)-2H-tetrazolium assays measure the cytotoxicity of geldanamycin derivatives. MTS (3-(4,5-dimethylthiazol-2-yl) -5-(3-carboxymethoxyphenyl)-2-(4-sulfophenyl)-2H-tetrazolium) is a tetrazolium dye that is converted to a formazan product by dehydrogenase enzymes of metabolically active cells (Corey, A. et al. “Use of an aqueous soluble tetrazolium/formazan assay for cell growth assays in culture,” Cancer Commun. 1991, 3, 207-212). Cells were seeded in 96 well plates at 2000 cells/well and allowed to adhere overnight in Dulbecco's modified Eagle's medium supplemented with 10% fetal bovine serum. The final culture volume was 100 μl. Viable cell number was determined by using the Celltiter 96 AQueous Non-radioactive Cell Proliferation Assay (Promega, Madison Wis.). The MTS/PMS (phenazine methosulfate) solution was mixed at a ratio of 20:1, and 20 μL was added per well to 100 μl of culture medium. After 2-4 hours, the formation of the formazan product was measured at 490 nm absorbance using a multiwell plate spectrophotometer. Background was determined by measuring the Abs 490 nm of cell culture medium and MTS-PMS in the absence of cells and was subtracted from all values. Percent viable cells was calculated as follows: % viable cells=(Abs at 490 nm treated cells/Abs at 490 nm untreated cells)×100
The effect of selected compounds of the invention on MCF7 breast carcinoma cells according to the MTS assay is summarized in table 3. IC50 was defined as the concentration of the compound which gave rise to 50% reduction in viable cell number.
On the technique in general: Tetrazolium dyes change colour on reduction, which living cells bring about.

The subject of test [2] is BT474 breast tumor cell line. Kind of test: MTS assay / secondary assay of killing tumor cells, BT474. Conditions: Homo sapiens, BT-474. On the procedure: as §1, §2

pIC50: −log10 of the molar value.

On to `COc1c(C)cnc(Cn2cc(C#CCO)c3c(Cl)nc(N)nc32)c1C` [Example 1, 3-[2-amino-4-chloro-7-(4-methoxy-3,5-dimethyl-pyridin-2-ylmethyl)-7H-pyrrolo [2,3-d]pyrimidin-5-yl]-prop-2-yn-1-ol], for which the pIC50 (usually −log10 of the IC50, conventionally taken in molar units) with HER2/Neu protein was 7.92; in test [1] it was 6.89; in test [2] it was 7.70.

For `COc1c(C)cnc(Cn2cc(C#CCCO)c3c(Cl)nc(N)nc32)c1C` [Example 2, 4-[2-Amino-4-chloro-7-(4-methoxy-3,5-dimethyl-pyridin-2-ylmethyl)-7H-pyrrolo[2,3-d]pyrimidin-5-yl]-but-3-yn-1-ol], the pIC50 in test [1] was 7.89; in test [2], 8.22.

On to `COc1c(C)cnc(Cn2cc(C#CCCCO)c3c(Cl)nc(N)nc32)c1C` [Example 3, 5-[2-Amino-4-chloro-7-(4-methoxy-3,5-dimethyl-pyridin-2-ylmethyl)-7H-pyrrolo[2,3-d]pyrimidin-5-yl]-pent-4-yn-1-ol], for which the pIC50 in test [1] was 7.89; in test [2] it was 8.10.

Turning to `COc1c(C)cnc(Cn2cc(C#CCN(C(C)C)C(C)C)c3c(Cl)nc(N)nc32)c1C` [Example 5, 4-Chloro-5-(3-diisopropylamino-prop-1-ynyl)-7-(4-methoxy-3,5-dimethyl-pyridin-2-ylmethyl)-7H-pyrrolo[2,3-d]pyrimidin-2-ylamine], the pIC50 in the test on HER2/Neu protein was 7.26; in test [1], 7.00; in test [2] it was 7.10.

With `COc1c(C)cnc(Cn2cc(C#CCCCCO)c3c(Cl)nc(N)nc32)c1C` [Example 7, 6-[2-Amino-4-chloro-7-(4-methoxy-3,5-dimethyl-pyridin-2-ylmethyl)-7H-pyrrolo[2,3-d]pyrimidin-5-yl]-hex-5-yn-1-ol], the pIC50 in test [1] was 6.70; in test [2], 7.70.

Take `CCN(CC)C(=O)CCC#Cc1cn(Cc2ncc(C)c(OC)c2C)c2nc(N)nc(Cl)c12` [Example 10]: the figures for the negative-log IC50 (pIC50) in test [1] and in test [2] were 6.15 and 7.30, respectively.

On to `COc1c(C)cnc(Cn2cc(C#CCCC(=O)N3CCN(C)CC3)c3c(Cl)nc(N)nc32)c1C` [Example 11], for which the negative-log IC50 (pIC50) in test [1] is 7.00; in test [2] it was 7.70.

As for `COc1c(C)cnc(Cn2cc(C#CCCC(N)=O)c3c(Cl)nc(N)nc32)c1C` [Example 12, 5-[2-Amino-4-chloro-7-(4-methoxy-3,5-dimethyl-pyridin-2-ylmethyl)-7H-pyrrolo[2,3-d]pyrimidin-5-yl]-pent-4-ynoic acid amide], the pIC50 in test [1] was 7.52; in test [2], 7.70.

Consider `COc1c(C)cnc(Cn2cc(C#CCCCNC(=O)OC(C)(C)C)c3c(Cl)nc(N)nc32)c1C` [Example 15, {5-[2-Amino-4-chloro-7-(4-methoxy-3,5-dimethyl-pyridin-2-ylmethyl)-7H-pyrrolo [2,3-d]pyrimidin-5-yl]-pent-4-ynyl}-carbamic acid tert-butyl ester], for which the pIC50 in test [1] is 7.22; in test [2] it was 6.00.

Take `COc1c(C)cnc(Cn2cc(C#CCCCN)c3c(Cl)nc(N)nc32)c1C` [Example 16, 5-(5-Amino-pent-1-ynyl)-4-chloro-7-(4-methoxy-3,5-dimethyl-pyridin-2-ylmethyl)-7H-pyrrolo [2,3-d]pyrimidin-2-ylamine]: the negative-log IC50 (pIC50) in test [1] is 7.05; in test [2], less than 5.00.

As to `COc1c(C)cnc(Cn2cc(C#CCCCN3C(=O)c4ccccc4C3=O)c3c(Cl)nc(N)nc32)c1C` [Example 17], the negative-log IC50 (pIC50) was 8.00 in test [1] and 7.00 in test [2].

As for `COc1c(C)cnc(Cn2cc(C#CCCN3CCOCC3)c3c(Cl)nc(N)nc32)c1C` [Example 18], the pIC50 in test [1] was 7.30; in test [2], 6.00.

For `COc1c(C)cnc(Cn2cc(C#CCCCN3CCOCC3)c3c(Cl)nc(N)nc32)c1C` [Example 19], the results for the pIC50 in test [1] and in test [2] were 7.00 and 6.00, respectively.

For `COc1c(C)cnc(Cn2cc(C#CCCNC(C)(C)C)c3c(Cl)nc(N)nc32)c1C` [Example 20, 5-(4-tert-Butylamino-but-1-ynyl)-4-chloro-7-(4-methoxy-3,5-dimethyl-pyridin-2-ylmethyl) -7H-pyrrolo[2,3-d]pyrimidin-2-ylamine], the results for the negative logarithm of the IC50 (pIC50) in test [1] and in test [2] were 6.89 and 7.64, respectively.

Take `COc1c(C)cnc(Cn2cc(C#CCCCNC(C)(C)C)c3c(Cl)nc(N)nc32)c1C` [Example 21, 5-(5-tert-Butylamino-pent-1-ynyl)-4-chloro-7-(4-methoxy-3,5-dimethyl-pyridin-2-ylmethyl) -7H-pyrrolo[2,3-d]pyrimidin-2-ylamine]: the results for the pIC50 in test [1] and in test [2] were 6.64 and 7.52, respectively.

As for `COc1c(C)cnc(Cn2cc(C#CCOC(=O)CN(C)C)c3c(Cl)nc(N)nc32)c1C` [Example 22, Dimethylamino-acetic acid 3-[2-amino-4-chloro-7-(4-methoxy-3,5-dimethyl-pyridin-2-ylmethyl)-7H-pyrrolo[2,3-d]pyrimidin-5-yl]-prop-2-ynyl ester], the pIC50 in test [1] is 6.70; in test [2], 7.70.

As to `COc1c(C)cnc(Cn2cc(C#CCCN3C(=O)c4ccccc4C3=O)c3c(Cl)nc(N)nc32)c1C` [H], in test [1] (cell line not specified, MCF7 and BT474 tested), the “potency index relative to 17-AAG” value is “more potent than 17-AAG”.
